Earlier results, collected in patent US20110009373A1, “COMPOSITION COMPRISING A COMBINATION OF AN AROMATASE INHIBITOR, A PROGESTIN AND AN OESTROGEN AND ITS USE FOR THE TREATMENT OF ENDOMETRIOSIS” (ASTRAZENECA AB, priority 2003, published 2011).

Test system: endometriotic lesion
Conditions: addition of oestrogen to letrozole; wild type mice and aromatase knockout mice

For `N#Cc1ccc(C(c2ccc(C#N)cc2)n2cncn2)cc1` [letrozole], the Endometriotic lesion sizes is listed as “increases in the endometriotic lesion sizes”.
